Like-named read-outs stand apart in the source and are kept apart here. Where a SMILES comes first, the peptide text is derived from it. The star is where a group is joined. NOTA = O=C(O)CN1CCN(CC(=O)O)CCN(CC(=O)*)CC1; AEEA = NCCOCCOCC(=O)O
How the values were obtained:
[1] = In vitro stability in fresh human serum (RP-HPLC); assay type: in vitro ADME; conditions: 37°C, 1, 2, 4 and 6 h
Experimental: The in vitro and in vivo stability of [^18F]F-FGFR1 was evaluated by RP-HPLC analysis. […] The radiochemical purity of the final compounds was determined by RP-HPLC.

[2] = In vivo radiochemical stability, urine of xenograft nude mice (RP-HPLC); conditions: urine of xenograft nude mice 60 min after injection of 7.4 MBq; one peak at 5.7 min; fluorine-18 at 4 min
Experimental: For the in vivo radiochemical stability experiment, urine samples were obtained from xenograft nude mice 60 min after injection of 150 µl (7.4 MBq, 2.53 GBq/μmol) [^18F]F-FGFR1 and analyzed by RP-HPLC.

[3] = tested on: RT-112 cells (FGFR1-high expression); test: Cellular uptake and blocking study; assay type: cell-based, human
Experimental: RT-112, A549, SNU-16 and Calu-3 cells were cultured at a density of 1*10^5 cells per well in 24-well plates the day before cellular uptake experiments. Cells were rinsed twice with 1000 µl of phosphate-buffered saline (PBS) (BI, Israel), followed by 1000 µl of growth medium. Then, 30 µl (111 KBq, 1.81-2.53 GBq/μmol) of [^18F]F-FGFR1 was added to each well, and the cells were incubated with the peptide for 15, 30, 60 and 120 min. At each cutoff time, 6 wells of supernatant were collected. The collected wells were washed twice with 1000 µl of PBS. Radioactivity counts were marked as Cout. […] After 500 µl of trypsin-EDTA digestion of the adherent cells and washed twice with 1000 µl of PBS, the collected cells were defined as Cin. Radioactivity was counted with an automatic γ counter. The formula for the cell uptake rate was as follows: Cin/(Cin + Cout).
To determine the specific binding of [^18F]F-FGFR1 with FGFR1 on the cell surface, 200-fold unlabeled peptide (220 µg) and 30 µl of [^18F]F-FGFR1 (111 KBq) were added to RT-112 cells at the same time. The supernatants were removed after 120 min of incubation. The subsequent steps of cell collection and radioactivity detection were performed as described above. The cell uptake rate was calculated by Cin/(Cin + Cout).

[4] = tested on: RT-112, A549, SNU-16 and Calu-3 cells; test: Cellular internalization study; assay type: cell-based, human; conditions: acid wash with acetate buffer pH 2.5, four cell lines, P > 0.5, n = 6
Experimental: Internalization studies were performed according to the planned experiments. Thirty microliters (111 KBq, 1.81-2.53 GBq/μmol) of [^18F]F-FGFR1 was incubated with fresh medium in 24-well plates. The medium was discarded at predetermined time points, and the wells were rinsed twice with 1000 µl of PBS. Then, 1000 µl of acetate buffer (0.2 M acetic acid/0.5 M NaCl, pH 2.5) was added to the wells to remove surface-bound radioactivity. After removing the acetate buffer, the cells were washed twice with 1000 µl of PBS. The acetate buffer and PBS were collected and marked as Cs. The radioactivity of the collected cell lysate was measured and defined as Cin. The internalization rate was assessed in a similar method to the cell uptake rate calculation: Cin/(Cin + Cs).

[5] = Micro-PET/CT biodistribution in RT-112 xenografts; assay type: in vivo, BALB/c nude mice; conditions: female, BALB/c nude, mouse, iv, total radioactivity, 11.1 MBq tail vein, micro-PET/CT ROI, mean ± SD; for tissue uptake at 0.5 h: 30 min post-injection; for tissue uptake at 1 h: 60 min post-injection; for tissue uptake at 2 h: 120 min post-injection
Experimental: All animal experiments were carried out in accordance with the Laboratory Animal Ethical Review of Animal Guidelines of China. BALB/c nude mice (sex, female; age, 4 weeks, body weight range, 19-21 g; China) were used for this study. Four cell lines (2*10^7 cells/nude mouse) were subcutaneously injected into the right forelimb to induce solid tumors. All xenograft nude mice were housed in laminar flow cabinets in a specific pathogen-free (SPF) environment and were provided ad libitum access to food and water at the Laboratory Animal Center of the Fourth Hospital of Hebei Medical University (China). The indication for micro-PET/CT imaging was xenografts with a tumor volume of 50-130 mm^3. All animal experiments strictly adhered to the Principles of the Laboratory Animal Ethical Committee of the Fourth Hospital Hebei Medical University (No. 2020016).
Xenograft mice (n=5) were fastly injected of 200 µl of [^18F]F-FGFR1 (11.1 MBq) through tail vein. For the in vivo blocking study, RT-112 (FGFR1-high expression) tumor-bearing mice (n = 5) were injected with a tracer that was mixed with 200-fold (1.58 mg) unlabeled peptide to saturate the receptors in the tumors. Mice were anesthetized via 3% isoflurane inhalation (RWD Life Science Inc. China) for induction and 2% isoflurane inhalation for maintenance. Micro-PET/CT imaging was performed on a micro-PET/SPECT/CT machine (NOVEL MEDICAL Equipment Ltd. China). Whole-body scans were performed 30, 60 and 120 min after tracer administration. The CT scanning parameters were 80 kV, 0.5 mA, 2000 ms/frames, and 360 frames; the images were reconstructed with a 512*512 matrix and a slice thickness of 0.18 mm. PET images were acquired with a 140*140 matrix and 10 min of total acquisition time. Reconstructed images were processed with the comprehensive image analysis software Pmod v4.201 (PMOD Technologies LLC. Switzerland). The biodistribution of the major organs (brain, heart, lung, liver, kidney, bone and muscle) and tumor were analyzed by manually outlining the regions of interest (ROIs) of the entire organs and tissue at each time point of the micro-PET/CT scan. The radioactivity accumulated in bone and muscle was measured in the limbs without xenograft tumors.

[6] = bone, n=5, read-out: Biodistribution, Bone
[7] = brain, n=5, read-out: Biodistribution, Brain
[8] = heart, n=5, read-out: Biodistribution, Heart
[9] = kidney, n=5, read-out: Biodistribution, Kidney
[10] = liver, n=5, read-out: Biodistribution, Liver
[11] = lung, n=5, read-out: Biodistribution, Lung
[12] = muscle, n=5, read-out: Biodistribution, Muscle
[13] = tumor, n=5, read-out: Biodistribution, Tumor

Radiochemical purity after incubation (in vitro stability) [1]: exceeded 90%
In vivo radiochemical stability (RP-HPLC of urine) [2]: no peak corresponded to fluorine-18
tissue uptake at 0.5 h [5, 6]: 0.33 ± 0.1 %ID/g
tissue uptake at 1 h [5, 6]: 0.35 ± 0.12 %ID/g
tissue uptake at 2 h [5, 6]: 0.48 ± 0.23 %ID/g
tissue uptake at 0.5 h [5, 7]: 0.66 ± 0.05 %ID/g
tissue uptake at 1 h [5, 7]: 0.69 ± 0.03 %ID/g
tissue uptake at 2 h [5, 7]: 0.03 ± 0.01 %ID/g
tissue uptake at 0.5 h [5, 8]: 1.02 ± 0.11 %ID/g
tissue uptake at 1 h [5, 8]: 0.75 ± 0.06 %ID/g
tissue uptake at 2 h [5, 8]: 0.1 ± 0.03 %ID/g
tissue uptake at 0.5 h [5, 9]: 9.44 ± 0.58 %ID/g
tissue uptake at 1 h [5, 9]: 6.85 ± 0.77 %ID/g
tissue uptake at 2 h [5, 9]: 19 ± 4.82 %ID/g
tissue uptake at 0.5 h [5, 10]: 1.35 ± 0.23 %ID/g
tissue uptake at 1 h [5, 10]: 1.43 ± 0.06 %ID/g
tissue uptake at 2 h [5, 10]: 0.17 ± 0.08 %ID/g
tissue uptake at 0.5 h [5, 11]: 0.75 ± 0.11 %ID/g
tissue uptake at 1 h [5, 11]: 0.65 ± 0.09 %ID/g
tissue uptake at 2 h [5, 11]: 0.14 ± 0.05 %ID/g
tissue uptake at 0.5 h [5, 12]: 0.24 ± 0.05 %ID/g
tissue uptake at 1 h [5, 12]: 0.28 ± 0.03 %ID/g
tissue uptake at 2 h [5, 12]: 0.09 ± 0.02 %ID/g
tissue uptake at 0.5 h [5, 13]: 3.84 ± 0.17 %ID/g
tissue uptake at 1 h [5, 13]: 2.6 ± 0.1 %ID/g
tissue uptake at 2 h [5, 13]: 1.35 ± 0.07 %ID/g
SMILES: CC(C)C[C@H](NC(=O)[C@H](CO)NC(=O)[C@H](CCCCN)NC(=O)[C@H](Cc1c[nH]c2ccccc12)NC(=O)[C@H](CCC(=O)O)NC(=O)[C@H](C)NC(=O)[C@H](CCCCN)NC(=O)COCCOCCNC(=O)CN1CCN(CC(=O)O)CCN(CC(=O)O)CC1)C(=O)NCC(=O)N[C@@H](CCC(=O)O)C(=O)N[C@@H](CCC(=O)O)C(=O)N[C@@H](C)C(=O)N[C@@H](Cc1c[nH]c2ccccc12)C(=O)N[C@@H](Cc1c[nH]cn1)C(=O)N[C@@H](CO)C(=O)N[C@@H](CCCCN)C(=O)O [[^18F]F-FGFR1] ({NOTA-AEEA}-KAEWKSLGEEAWHSK-OH; N-terminus and C-terminus assumed)
Cellular uptake in RT-112 versus A549, SNU-16 and Calu-3 cells ([3]; 15, 30, 60 and 120 min incubation, P < 0.001, n = 6): consistently higher in RT-112 cell line
Cell uptake rate Cin/(Cin + Cout), blocked ([3]; RT-112 cells, 111 KBq tracer with 200-fold excess unlabeled peptide (220 µg), 120 min, mean ± SD, n = 6): 0.24 ± 0.05
Cell uptake rate Cin/(Cin + Cout) ([3]; RT-112 cells, 111 KBq tracer, 120 min incubation, γ counter, mean ± SD, n = 6): 5.11 ± 0.63
Internalization fraction Cin/(Cin + Cs) [4]: not significantly different in the four cell lines

— article PMC10174317, “^18F-labeled FGFR1 peptide: a new PET probe for subtype FGFR1 receptor imaging” (Frontiers in Oncology, 2023)
